ChEMBL document CHEMBL6109078, “Pyrylium derivatives as outer membrane permeabilizers against MDR gram-negative bacteria via multi-target mode of action” (Eur J Med Chem, 2025)
Bridge positions count the residues as written; N and C are the ends. Square brackets hold non-standard residues; d marks the D form. Peptide text beside a SMILES is read from it. * marks the point of attachment. X1 = CC[C@H](C)CCCCC(=O)*; Dab = NCC[C@H](N)C(=O)O

Key:
Acinetobacter baumannii [1] = assay: Antibacterial activity against Acinetobacter baumannii ATCC 19606 assessed as inhibition of bacterial growth by CLSI protocol based method; assay type: functional
Escherichia coli [2] = assay: Antibacterial activity against Escherichia coli ATCC 25922 assessed as inhibition of bacterial growth by CLSI protocol based method; assay type: functional
Escherichia coli [3] = assay: Antibacterial activity against ESBL positive Escherichia coli ATCC 35218 assessed as inhibition of bacterial growth by CLSI protocol based method; assay type: functional
Klebsiella pneumoniae [4] = assay: Antibacterial activity against Klebsiella pneumoniae ATCC 700603 assessed as inhibition of bacterial growth by CLSI protocol based method; assay type: functional
Klebsiella pneumoniae [5] = assay: Antibacterial activity against Klebsiella pneumoniae BAA ATCC 1706 assessed as inhibition of bacterial growth by CLSI protocol based method; assay type: functional
Pseudomonas aeruginosa [6] = assay: Antibacterial activity Pseudomonas aeruginosa ATCC 27853 assessed as inhibition of bacterial growth by CLSI protocol based method; assay type: functional
Pseudomonas aeruginosa [7] = assay: Antibacterial activity Pseudomonas aeruginosa PAO1 assessed as inhibition of bacterial growth by CLSI protocol based method; assay type: functional
Acinetobacter baumannii [8] = assay: Antibacterial activity against multi-drug resistant Acinetobacter baumannii clinical isolate 5 assessed as inhibition of bacterial growth by CLSI protocol based method; assay type: functional
Acinetobacter baumannii [9] = assay: Antibacterial activity against multi-drug resistant Acinetobacter baumannii clinical isolate 10 assessed as inhibition of bacterial growth by CLSI protocol based method; assay type: functional
Acinetobacter baumannii [10] = assay: Antibacterial activity against multi-drug resistant Acinetobacter baumannii clinical isolate 2 assessed as inhibition of bacterial growth by CLSI protocol based method; assay type: functional
Acinetobacter baumannii [11] = assay: Antibacterial activity against multi-drug resistant Acinetobacter baumannii clinical isolate 4 assessed as inhibition of bacterial growth by CLSI protocol based method; assay type: functional
Acinetobacter baumannii [12] = assay: Antibacterial activity against multi-drug resistant Acinetobacter baumannii clinical isolate 51 assessed as inhibition of bacterial growth by CLSI protocol based method; assay type: functional
Acinetobacter baumannii [13] = assay: Antibacterial activity against multi-drug resistant Acinetobacter baumannii clinical isolate 14 assessed as inhibition of bacterial growth by CLSI protocol based method; assay type: functional
Acinetobacter baumannii [14] = assay: Antibacterial activity against multi-drug resistant Acinetobacter baumannii clinical isolate 1 assessed as inhibition of bacterial growth by CLSI protocol based method; assay type: functional
Acinetobacter baumannii [15] = assay: Antibacterial activity against multi-drug resistant Acinetobacter baumannii clinical isolate 43 assessed as inhibition of bacterial growth by CLSI protocol based method; assay type: functional
Escherichia coli [16] = assay: Antibacterial activity against multi-drug resistant Escherichia coli clinical isolate 1 assessed as inhibition of bacterial growth by CLSI protocol based method; assay type: functional
Escherichia coli [17] = assay: Antibacterial activity against Escherichia coli CG-4 expressing MCR-1 and NDM-1 assessed as inhibition of bacterial growth by CLSI protocol based method; assay type: functional
Acinetobacter baumannii [18] = assay: Synergistic antibacterial activity against Acinetobacter baumannii ATCC 19606 assessed as inhibition of bacterial growth by measuring polymyxin B MIC by checkerboard assay; assay type: functional
Acinetobacter baumannii [19] = assay: Synergistic antibacterial activity against multi-drug resistant Acinetobacter baumannii clinical isolate 5 assessed as inhibition of bacterial growth by measuring polymyxin B MIC by checkerboard assay; assay type: functional
Acinetobacter baumannii [20] = assay: Synergistic antibacterial activity against multi-drug resistant Acinetobacter baumannii clinical isolate 14 assessed as inhibition of bacterial growth by measuring polymyxin B MIC by checkerboard assay; assay type: functional
Acinetobacter baumannii [21] = assay: Synergistic antibacterial activity against multi-drug resistant Acinetobacter baumannii clinical isolate 1 assessed as inhibition of bacterial growth by measuring polymyxin B MIC by checkerboard assay; assay type: functional
Acinetobacter baumannii [22] = assay: Synergistic antibacterial activity against multi-drug resistant Acinetobacter baumannii clinical isolate 43 assessed as inhibition of bacterial growth by measuring polymyxin B MIC by checkerboard assay; assay type: functional
Escherichia coli [23] = assay: Synergistic antibacterial activity against Escherichia coli ATCC 25922 assessed as inhibition of bacterial growth by measuring polymyxin B MIC by checkerboard assay; assay type: functional
Escherichia coli [24] = assay: Synergistic antibacterial activity against Escherichia coli ATCC 35218 assessed as inhibition of bacterial growth by measuring polymyxin B MIC by checkerboard assay; assay type: functional; details: Escherichia coli, ATCC 35218; read-out: MIC
Escherichia coli [25] = assay: Synergistic antibacterial activity against multi-drug resistant Escherichia coli clinical isolate 1 assessed as inhibition of bacterial growth by measuring polymyxin B MIC by checkerboard assay; assay type: functional
Escherichia coli [26] = assay: Synergistic antibacterial activity against Escherichia coli CG-4 expressing MCR-1 and NDM-1 assessed as inhibition of bacterial growth by measuring polymyxin B MIC by checkerboard assay; assay type: functional
Acinetobacter baumannii [27] = assay: Synergistic antibacterial activity against Acinetobacter baumannii ATCC 19606 assessed as inhibition of bacterial growth in presence of polymyxin B by checkerboard assay; assay type: functional
Acinetobacter baumannii [28] = assay: Synergistic antibacterial activity against multi-drug resistant Acinetobacter baumannii clinical isolate 5 assessed as inhibition of bacterial growth in presence of polymyxin B by checkerboard assay; assay type: functional
Acinetobacter baumannii [29] = assay: Synergistic antibacterial activity against multi-drug resistant Acinetobacter baumannii clinical isolate 14 assessed as inhibition of bacterial growth in presence of polymyxin B by checkerboard assay; assay type: functional
Acinetobacter baumannii [30] = assay: Synergistic antibacterial activity against multi-drug resistant Acinetobacter baumannii clinical isolate 1 assessed as inhibition of bacterial growth in presence of polymyxin B by checkerboard assay; assay type: functional
Acinetobacter baumannii [31] = assay: Synergistic antibacterial activity against multi-drug resistant Acinetobacter baumannii clinical isolate 43 assessed as inhibition of bacterial growth in presence of polymyxin B by checkerboard assay; assay type: functional
Escherichia coli [32] = assay: Synergistic antibacterial activity against Escherichia coli ATCC 25922 assessed as inhibition of bacterial growth in presence of polymyxin B by checkerboard assay; assay type: functional
Escherichia coli [33] = assay: Synergistic antibacterial activity against Escherichia coli ATCC 35218 assessed as inhibition of bacterial growth in presence of polymyxin B by checkerboard assay; assay type: functional
Escherichia coli [34] = assay: Synergistic antibacterial activity against multi-drug resistant Escherichia coli clinical isolate 1 assessed as inhibition of bacterial growth in presence of polymyxin B by checkerboard assay; assay type: functional
Escherichia coli [35] = assay: Synergistic antibacterial activity against Escherichia coli CG-4 expressing MCR-1 and NDM-1 assessed as inhibition of bacterial growth in presence of polymyxin B by checkerboard assay; assay type: functional
Acinetobacter baumannii [36] = assay: Synergistic antibacterial activity against Acinetobacter baumannii ATCC 19606 assessed as fractional inhibitory concentration index in presence of polymyxin B by checkerboard assay; assay type: functional
Acinetobacter baumannii [37] = assay: Synergistic antibacterial activity against multi-drug resistant Acinetobacter baumannii clinical isolate 1 assessed as fractional inhibitory concentration index in presence of polymyxin B by checkerboard assay; assay type: functional
Acinetobacter baumannii [38] = assay: Synergistic antibacterial activity against multi-drug resistant Acinetobacter baumannii clinical isolate 43 assessed as fractional inhibitory concentration index in presence of polymyxin B by checkerboard assay; assay type: functional
Escherichia coli [39] = assay: Synergistic antibacterial activity against Escherichia coli ATCC 25922 assessed as fractional inhibitory concentration index in presence of polymyxin B by checkerboard assay; assay type: functional
Escherichia coli [40] = assay: Synergistic antibacterial activity against Escherichia coli ATCC 35218 assessed as fractional inhibitory concentration index in presence of polymyxin B by checkerboard assay; assay type: functional
Escherichia coli [41] = assay: Synergistic antibacterial activity against multi-drug resistant Escherichia coli clinical isolate 1 assessed as fractional inhibitory concentration index in presence of polymyxin B by checkerboard assay; assay type: functional
Escherichia coli [42] = assay: Synergistic antibacterial activity against Escherichia coli CG-4 expressing MCR-1 and NDM-1 assessed as fractional inhibitory concentration index in presence of polymyxin B by checkerboard assay; assay type: functional
[43] = Binding affinity to His-tagged LptA (unknown origin) extracted from Escherichia coli BL21 (DE3) cells assessed as dissociation constant by BLI analysis; parameters: species or system Bacteria
[44] = Binding affinity to His-tagged LptC (unknown origin) extracted from Escherichia coli BL21 (DE3) cells assessed as dissociation constant by BLI analysis; parameters: species or system Bacteria
Escherichia coli [45] = assay: Antibacterial activity against Escherichia coli ATCC 25922 infected in Galleria mellonella larvae assessed as survival rate of larvae at 1 microg/ml relative to control; assay type: functional
Acinetobacter baumannii [46] = assay: Antibacterial activity against Acinetobacter baumannii ATCC 19606 infected in Galleria mellonella larvae assessed as survival rate of larvae at 1 microg/ml measured after 96 hrs relative to control; assay type: functional

What does the source list for CN(C)c1ccc(/C=C/c2cc(C(C)(C)C)[o+]c(C(C)(C)C)c2)cc1.O=S(=O)([O-])C(F)(F)F?
MIC (Acinetobacter baumannii [1]): 12.5 µg/mL; MIC (Escherichia coli [2]): 12.5 µg/mL; MIC (Escherichia coli [3]): 12.5 µg/mL; MIC (Klebsiella pneumoniae [4]): > 100 µg/mL; MIC (Klebsiella pneumoniae [5]): > 100 µg/mL; MIC (Pseudomonas aeruginosa [6]): > 100 µg/mL; MIC (Pseudomonas aeruginosa [7]): > 100 µg/mL; MIC (Acinetobacter baumannii [8]): 50 µg/mL; MIC (Acinetobacter baumannii [9]): 25 µg/mL; MIC (Acinetobacter baumannii [10]): 25 µg/mL; MIC (Acinetobacter baumannii [11]): 25 µg/mL; MIC (Acinetobacter baumannii [12]): 50 µg/mL; MIC (Acinetobacter baumannii [13]): 25 µg/mL; MIC (Acinetobacter baumannii [14]): 100 µg/mL; MIC (Acinetobacter baumannii [15]): 50 µg/mL; MIC (Escherichia coli [16]): 100 µg/mL; MIC (Escherichia coli [17]): 25 µg/mL; MIC (Acinetobacter baumannii [18]): 0.006 µg/mL; MIC (Acinetobacter baumannii [19]): 0.006 µg/mL; MIC (Acinetobacter baumannii [20]): 0.006 µg/mL; MIC (Acinetobacter baumannii [21]): 0.05 µg/mL; MIC (Acinetobacter baumannii [22]): 1 10^-4 ug/ml; MIC (Escherichia coli [23]): 7.8 10^-4 ug/ml; MIC (Escherichia coli [24]): 0.25 µg/mL; MIC (Escherichia coli [25]): 0.2 µg/mL; MIC (Escherichia coli [26]): 0.39 µg/mL; MIC (Acinetobacter baumannii [27]): 1.56 µg/mL; MIC (Acinetobacter baumannii [28]): 12.5 µg/mL; MIC (Acinetobacter baumannii [29]): 6.25 µg/mL; MIC (Acinetobacter baumannii [30]): 3.13 µg/mL; MIC (Acinetobacter baumannii [31]): 12.5 µg/mL; MIC (Escherichia coli [32]): 6.25 µg/mL; MIC (Escherichia coli [33]): 1.56 µg/mL; MIC (Escherichia coli [34]): 3.13 µg/mL; MIC (Escherichia coli [35]): 3.13 µg/mL; fractional inhibitory concentration index (FICI) (Acinetobacter baumannii [36]): 0.188; fractional inhibitory concentration index (FICI) (Acinetobacter baumannii [37]): <0.032; fractional inhibitory concentration index (FICI) (Acinetobacter baumannii [38]): <0.25; fractional inhibitory concentration index (FICI) (Escherichia coli [39]): 0.266; fractional inhibitory concentration index (FICI) (Escherichia coli [40]): 0.375; fractional inhibitory concentration index (FICI) (Escherichia coli [41]): 0.047; fractional inhibitory concentration index (FICI) (Escherichia coli [42]): 0.188; Kd [43]: 160 µM; Kd [44]: 17 µM

With CC(C)CCCCC(=O)N[C@@H](CCN)C(=O)N[C@H](C(=O)N[C@@H](CCN)C(=O)N[C@H]1CCNC(=O)[C@H]([C@@H](C)O)NC(=O)[C@H](CCN)NC(=O)[C@H](CCN)NC(=O)[C@H](CC(C)C)NC(=O)[C@@H](Cc2ccccc2)NC(=O)[C@H](CCN)NC1=O)[C@@H](C)O.CC[C@H](C)CCCCC(=O)N[C@@H](CCN)C(=O)N[C@H](C(=O)N[C@@H](CCN)C(=O)N[C@H]1CCNC(=O)[C@H]([C@@H](C)O)NC(=O)[C@H](CCN)NC(=O)[C@H](CCN)NC(=O)[C@H](CC(C)C)NC(=O)[C@@H](Cc2ccccc2)NC(=O)[C@H](CCN)NC1=O)[C@@H](C)O (X1-[Dab]T[Dab][Dab][Dab][dF]L[Dab][Dab]T; lactam 4-C) as the compound, how does the MIC (Acinetobacter baumannii [1]) read?
The MIC was 0.05 µg/mL.

And the MIC (Escherichia coli [2])?
The MIC was 0.05 µg/mL.

What about the MIC (Escherichia coli [3]) of the same compound?
Its MIC is 0.1 µg/mL.

What about the MIC (Klebsiella pneumoniae [4]) of the same compound?
Its MIC is 0.2 µg/mL.

What about the MIC (Pseudomonas aeruginosa [6]) of the same compound?
The MIC was 6.25 µg/mL.

And the MIC (Acinetobacter baumannii [8])?
Its MIC is 0.05 µg/mL.

And the MIC (Acinetobacter baumannii [9])?
The MIC was 0.05 µg/mL.

What about the MIC (Acinetobacter baumannii [10]) of the same compound?
The MIC was 0.39 µg/mL.

What about the MIC (Acinetobacter baumannii [11]) of the same compound?
Its MIC is 0.39 µg/mL.

And the MIC (Acinetobacter baumannii [12])?
The MIC was 0.78 µg/mL.

And the MIC (Acinetobacter baumannii [13])?
The MIC was 0.39 µg/mL.

What about the MIC (Acinetobacter baumannii [14]) of the same compound?
The MIC was greater than 100 µg/mL.

And the MIC (Acinetobacter baumannii [15])?
The MIC was greater than 100 µg/mL.

And the MIC (Escherichia coli [16])?
The MIC was 12.5 µg/mL.

And the MIC (Escherichia coli [17])?
Its MIC is 6.25 µg/mL.

And the survival at 1 µg/mL (Escherichia coli [45])?
The survival at 1 µg/mL was 40%.

What about the survival at 1 µg/mL (Acinetobacter baumannii [46]) of the same compound?
The survival at 1 µg/mL was 20%.
